Assay results reported in ChEMBL document CHEMBL1201862, “PubChem BioAssay data set” (2004).
The source made the active and inactive calls.

How the values were obtained:
[1] = biological target: T1, Calpain-2 catalytic subunit (Sus scrofa, UniProt P43367); assay: pig calpain II inhibitor potency, dose response, biochemical, fluorogenic peptide substrate (AID 1420); assay type: functional
T1 sequence (P43367 whole entry): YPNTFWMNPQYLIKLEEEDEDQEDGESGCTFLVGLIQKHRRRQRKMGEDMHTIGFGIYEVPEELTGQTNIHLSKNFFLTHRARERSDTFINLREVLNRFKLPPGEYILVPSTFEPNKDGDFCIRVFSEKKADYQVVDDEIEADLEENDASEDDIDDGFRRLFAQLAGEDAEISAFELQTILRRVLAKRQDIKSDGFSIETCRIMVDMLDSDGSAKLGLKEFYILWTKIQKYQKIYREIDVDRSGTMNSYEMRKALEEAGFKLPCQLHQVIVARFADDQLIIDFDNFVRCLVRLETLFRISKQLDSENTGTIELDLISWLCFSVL

[2] = cells; assay type: functional, cell-based
[3] = cells; assay type: functional, cell-based; remark: listed apart in the source
[4] = biological target: T2, High affinity choline transporter 1 (Homo sapiens, UniProt Q9GZV3); assay: CHT inhibitors, dose response, cell-based, 5-point CRC, membrane potential dye (AID 504840); assay type: functional
T2 sequence (Q9GZV3 whole entry): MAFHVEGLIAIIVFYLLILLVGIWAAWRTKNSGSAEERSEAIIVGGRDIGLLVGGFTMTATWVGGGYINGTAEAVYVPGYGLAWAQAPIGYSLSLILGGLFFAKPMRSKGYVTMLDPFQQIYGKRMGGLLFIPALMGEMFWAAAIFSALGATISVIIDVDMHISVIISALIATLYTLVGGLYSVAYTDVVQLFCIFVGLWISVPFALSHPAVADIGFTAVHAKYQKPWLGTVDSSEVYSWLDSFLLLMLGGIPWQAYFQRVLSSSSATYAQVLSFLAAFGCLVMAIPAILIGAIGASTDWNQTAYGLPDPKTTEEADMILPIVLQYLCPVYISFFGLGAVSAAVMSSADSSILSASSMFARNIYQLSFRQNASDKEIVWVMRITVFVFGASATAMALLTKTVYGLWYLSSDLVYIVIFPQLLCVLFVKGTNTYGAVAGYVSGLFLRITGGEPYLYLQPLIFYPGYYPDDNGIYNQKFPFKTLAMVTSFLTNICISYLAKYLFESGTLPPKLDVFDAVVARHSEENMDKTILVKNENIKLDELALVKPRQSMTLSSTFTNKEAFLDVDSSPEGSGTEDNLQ

[5] = biological target: T3, Short transient receptor potential channel 4 (Mus musculus, UniProt Q9QUQ5); assay: mouse TRPC4 channel inhibitors, dose response, cell-based, HEK293 TRPC4/mu-opioid, Fluo-4 calcium (AID 434942); assay type: functional;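 note: potency of inhibitors blocking the TRPC4 calcium response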
T3 sequence (Q9QUQ5 whole entry): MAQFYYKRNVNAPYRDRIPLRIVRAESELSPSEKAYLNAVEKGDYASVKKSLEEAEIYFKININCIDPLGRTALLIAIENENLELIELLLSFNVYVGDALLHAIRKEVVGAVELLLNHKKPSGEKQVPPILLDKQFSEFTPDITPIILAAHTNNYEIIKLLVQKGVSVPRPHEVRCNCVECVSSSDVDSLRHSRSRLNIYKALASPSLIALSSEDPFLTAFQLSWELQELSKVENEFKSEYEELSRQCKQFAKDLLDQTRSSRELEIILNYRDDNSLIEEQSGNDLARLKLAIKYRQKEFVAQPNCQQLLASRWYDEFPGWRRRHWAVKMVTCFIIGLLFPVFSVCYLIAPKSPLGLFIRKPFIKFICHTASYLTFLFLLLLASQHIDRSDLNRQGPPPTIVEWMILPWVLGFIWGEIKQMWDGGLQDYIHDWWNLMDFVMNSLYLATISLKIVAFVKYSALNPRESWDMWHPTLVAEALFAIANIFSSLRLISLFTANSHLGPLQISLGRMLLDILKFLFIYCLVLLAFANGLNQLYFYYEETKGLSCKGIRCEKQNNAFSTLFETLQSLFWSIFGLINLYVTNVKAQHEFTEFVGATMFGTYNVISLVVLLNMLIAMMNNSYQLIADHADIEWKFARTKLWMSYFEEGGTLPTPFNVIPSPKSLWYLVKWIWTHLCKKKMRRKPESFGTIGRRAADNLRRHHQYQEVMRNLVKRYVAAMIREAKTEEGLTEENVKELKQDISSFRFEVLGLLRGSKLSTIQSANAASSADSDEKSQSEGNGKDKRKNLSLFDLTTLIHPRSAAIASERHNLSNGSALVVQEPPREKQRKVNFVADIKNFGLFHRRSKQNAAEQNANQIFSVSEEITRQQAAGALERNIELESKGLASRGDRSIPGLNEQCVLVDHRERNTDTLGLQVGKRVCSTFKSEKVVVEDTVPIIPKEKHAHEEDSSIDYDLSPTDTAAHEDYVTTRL

[6] = microbe, parasite or virus in culture; assay type: functional; details: Mycobacterium tuberculosis
[7] = biological target: T4, Ubiquitin-conjugating enzyme E2 N (Homo sapiens, UniProt P61088); assay type: functional;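 note: Dose-response confirmation in a TR-FRET assay detecting UBC13-driven polyubiquitin chain formation, inhibition measured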
T4 sequence (P61088 whole entry): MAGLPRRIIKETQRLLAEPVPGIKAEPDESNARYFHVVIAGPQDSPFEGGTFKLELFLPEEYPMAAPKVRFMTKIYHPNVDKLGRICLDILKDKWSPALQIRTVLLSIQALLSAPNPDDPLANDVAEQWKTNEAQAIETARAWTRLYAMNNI

[8] = cells; assay type: functional
[9] = biological target: Genome polyprotein (dengue virus type 2, UniProt P29990); assay: Dengue-2 NS5 methyltransferase inhibitors, primary screen, biochemical, confirmation dose response (AID 588689); assay type: functional
Genome polyprotein, sequence (P29990 2492-3391 limits assumed): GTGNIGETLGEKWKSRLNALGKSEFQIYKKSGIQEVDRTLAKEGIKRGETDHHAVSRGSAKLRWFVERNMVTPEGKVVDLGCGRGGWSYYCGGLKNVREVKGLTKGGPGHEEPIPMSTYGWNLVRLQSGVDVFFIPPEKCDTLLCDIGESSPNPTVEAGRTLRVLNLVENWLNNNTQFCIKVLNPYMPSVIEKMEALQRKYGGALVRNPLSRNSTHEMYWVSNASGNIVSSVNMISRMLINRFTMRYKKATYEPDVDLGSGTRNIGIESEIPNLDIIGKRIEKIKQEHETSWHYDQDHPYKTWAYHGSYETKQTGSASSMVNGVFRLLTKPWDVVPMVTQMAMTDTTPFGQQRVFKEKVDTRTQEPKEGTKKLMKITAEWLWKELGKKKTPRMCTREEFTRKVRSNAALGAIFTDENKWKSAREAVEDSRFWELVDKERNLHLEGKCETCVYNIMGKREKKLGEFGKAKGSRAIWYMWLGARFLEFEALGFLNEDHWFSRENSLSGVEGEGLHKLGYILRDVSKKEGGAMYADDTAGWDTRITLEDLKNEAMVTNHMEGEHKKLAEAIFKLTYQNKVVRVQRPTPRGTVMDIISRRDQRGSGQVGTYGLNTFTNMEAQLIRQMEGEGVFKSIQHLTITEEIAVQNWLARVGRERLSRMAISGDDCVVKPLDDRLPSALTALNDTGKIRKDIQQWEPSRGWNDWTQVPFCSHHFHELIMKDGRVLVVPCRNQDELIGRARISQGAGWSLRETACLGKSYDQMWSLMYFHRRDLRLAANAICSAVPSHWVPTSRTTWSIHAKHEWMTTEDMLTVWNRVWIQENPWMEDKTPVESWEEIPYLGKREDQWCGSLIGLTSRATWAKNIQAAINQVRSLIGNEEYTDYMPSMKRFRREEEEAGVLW

[10] = biological target: Melanocortin receptor 4 (Homo sapiens, UniProt P32245); assay type: functional, cell-based;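 note: Cell-based assay with luminescence read-out, confirmatory dose-response testing for agonist activity of biased ligands at MC4R; human U2OS cells with tagged receptor and beta-arrestin; potency of agonists that increase receptor coupling to beta-arrestin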
Melanocortin receptor 4, sequence (P32245 whole entry): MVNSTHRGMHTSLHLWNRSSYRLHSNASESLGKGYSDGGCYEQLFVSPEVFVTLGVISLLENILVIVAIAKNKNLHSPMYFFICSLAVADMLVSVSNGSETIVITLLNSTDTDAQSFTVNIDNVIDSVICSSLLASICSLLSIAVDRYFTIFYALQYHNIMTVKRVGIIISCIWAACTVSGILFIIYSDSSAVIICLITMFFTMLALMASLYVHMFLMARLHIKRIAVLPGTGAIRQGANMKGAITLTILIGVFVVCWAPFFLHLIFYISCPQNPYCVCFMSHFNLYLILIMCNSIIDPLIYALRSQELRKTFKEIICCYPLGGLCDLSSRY

[11] = biological target: Cytochrome P450 3A4 (Homo sapiens, UniProt P08684);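 note: CYP3A4 tested as one member of a cytochrome P450 panel screen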
Cytochrome P450 3A4, sequence (P08684 whole entry): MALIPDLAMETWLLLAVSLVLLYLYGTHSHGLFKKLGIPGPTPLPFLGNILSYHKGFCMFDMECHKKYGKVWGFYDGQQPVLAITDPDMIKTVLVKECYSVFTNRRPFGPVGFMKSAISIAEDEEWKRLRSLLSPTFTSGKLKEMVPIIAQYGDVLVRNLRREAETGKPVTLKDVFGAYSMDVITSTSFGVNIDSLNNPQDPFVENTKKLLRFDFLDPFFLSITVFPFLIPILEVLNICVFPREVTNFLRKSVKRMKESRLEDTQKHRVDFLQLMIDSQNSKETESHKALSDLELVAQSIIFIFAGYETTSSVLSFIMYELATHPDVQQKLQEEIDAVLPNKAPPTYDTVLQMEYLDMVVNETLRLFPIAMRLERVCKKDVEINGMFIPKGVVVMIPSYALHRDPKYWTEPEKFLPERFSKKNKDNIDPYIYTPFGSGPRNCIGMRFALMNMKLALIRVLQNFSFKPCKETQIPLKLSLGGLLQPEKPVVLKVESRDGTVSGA

[12] = biological target: Cytochrome P450 2C9 (Homo sapiens, UniProt P11712)
Cytochrome P450 2C9, sequence (P11712 whole entry): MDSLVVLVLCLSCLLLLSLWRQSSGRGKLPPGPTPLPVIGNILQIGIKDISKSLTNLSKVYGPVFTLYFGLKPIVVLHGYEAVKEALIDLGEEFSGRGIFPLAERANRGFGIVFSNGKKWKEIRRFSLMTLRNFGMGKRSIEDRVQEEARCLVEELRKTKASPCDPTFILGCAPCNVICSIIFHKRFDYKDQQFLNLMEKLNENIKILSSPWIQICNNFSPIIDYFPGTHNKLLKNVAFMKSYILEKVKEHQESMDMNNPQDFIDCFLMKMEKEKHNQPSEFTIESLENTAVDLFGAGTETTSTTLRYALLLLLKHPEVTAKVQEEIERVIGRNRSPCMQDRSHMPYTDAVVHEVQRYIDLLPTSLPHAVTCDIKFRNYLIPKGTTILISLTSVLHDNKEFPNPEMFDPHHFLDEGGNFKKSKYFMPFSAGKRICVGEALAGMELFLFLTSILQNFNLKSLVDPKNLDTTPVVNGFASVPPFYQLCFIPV

[13] = biological target: T3, Short transient receptor potential channel 4; assay: mouse TRPC4 channel activators, dose response, cell-based, HEK293 TRPC4/mu-opioid, Fluo-4 calcium (AID 434937); assay type: functional
[14] = biological target: Cytochrome P450 2C19 (Homo sapiens, UniProt P33261); assay: Cytochrome panel assay with activity outcomes. Panel member name: p450-cyp2c19 Compounds with AC50 equal or less than 10 uM are considered active; assay type: functional; details: read-out: AC50
Cytochrome P450 2C19, sequence (P33261 whole entry): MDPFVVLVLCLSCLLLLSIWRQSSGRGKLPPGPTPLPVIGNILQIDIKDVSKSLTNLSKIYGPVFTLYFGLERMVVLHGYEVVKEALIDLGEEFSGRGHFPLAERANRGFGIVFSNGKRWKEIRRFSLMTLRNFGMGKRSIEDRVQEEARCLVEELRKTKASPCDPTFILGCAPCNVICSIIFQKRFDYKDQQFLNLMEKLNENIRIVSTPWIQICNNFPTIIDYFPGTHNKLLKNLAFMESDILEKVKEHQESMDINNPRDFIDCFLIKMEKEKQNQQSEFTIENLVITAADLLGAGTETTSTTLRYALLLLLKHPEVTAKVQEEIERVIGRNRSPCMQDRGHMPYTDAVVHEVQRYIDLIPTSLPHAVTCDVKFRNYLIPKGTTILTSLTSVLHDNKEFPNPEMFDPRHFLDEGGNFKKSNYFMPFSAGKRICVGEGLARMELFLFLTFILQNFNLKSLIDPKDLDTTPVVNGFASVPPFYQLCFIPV

[15] = LGR2 antagonists, dose response, cell-based, HEK293, CRE-luciferase reporter, cherry pick, set 2 (AID 743343); assay type: functional;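 note: transfected cells were stimulated with diluted bursicon conditioned medium after compound addition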
[16] = MC4R antagonists, dose response, counter-screen for LGR2 antagonist project, cell-based, plate reader, cherry pick (AID 743444); assay type: functional;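 note: transfected HEK 293 cells stimulated with alpha-MSH peptide; potency of inhibitors of the alpha-MSH evoked signal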
[17] = Luminescence Cell-Based Dose Confirmation HTS to Identify Activators of 5'UTR Stem-Loop Driven Alpha-Synuclein mRNA Translation in H4 Neuroglioblastoma Cells. [Related pubchem assays: 1829 (Project Summary), 1814 (Primary HTS)]; assay type: functional
[18] = Luminescence Cell-Based Dose Response HTS to Identify Activators of Luciferase Translation or Activity in H4 […] Cells. [Related pubchem assays: 1829 (Project Summary), 1814 (Primary HTS)]; assay type: functional
[19] = tested on: H4; assay: Luminescence Cell-Based Dose Response HTS to Identify Activators of 5'UTR Stem-Loop Driven Prion Protein mRNA Translation in H4 Neuroglioblastoma Cells. [Related pubchem assays: 1829 (Project Summary), 1814 (Primary HTS)]; assay type: functional; details: Homo sapiens
[20] = biological target: T5, Carboxy-terminal domain RNA polymerase II polypeptide A small phosphatase 1 (Homo sapiens, UniProt Q9GZU7); assay: inhibitors of CTDSP1, concentration-response testing, biochemical assay, absorbance-based, actives from ultra-high-throughput screening (AID 540297); assay type: functional
T5 sequence (Q9GZU7 whole entry): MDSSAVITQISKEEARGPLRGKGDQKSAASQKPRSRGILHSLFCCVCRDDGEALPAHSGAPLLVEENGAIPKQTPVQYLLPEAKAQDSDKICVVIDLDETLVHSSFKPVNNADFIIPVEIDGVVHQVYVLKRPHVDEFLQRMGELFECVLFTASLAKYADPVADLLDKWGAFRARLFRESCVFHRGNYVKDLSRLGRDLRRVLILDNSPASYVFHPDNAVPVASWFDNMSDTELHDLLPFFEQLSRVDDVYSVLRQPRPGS

For Cn1nc(C(=O)NNc2c(F)c(F)cc(F)c2F)c2ccccc2c1=O, the IC50 [1] was 5.53 µM (not active).
With O=C(Cn1ncc2c3ccccc3n(Cc3ccccc3F)c2c1=O)NCCN1CCOCC1 the EC50 [2] was > 350 µM (not active), the EC50 [3] was > 350 µM (not active) and the IC50 [4] was 12 µM (active).
For COc1ccc(C2CC(c3ccccc3)Nc3nc(NC(=O)c4cccs4)nn32)cc1 (stereo not given), the EC50 [5] was 1.06 µM (active).
For Cc1ccc(SC[C@H](c2ccccc2)N2CCN(CCc3ccccc3)CCC2=O)cc1, the IC50 [1] was 7.19 µM (not active).
With O=C1Nc2cc(C(=O)NCCCN3CCOCC3)ccc2S/C1=C/c1cccc(Cl)c1 the CC50 [6] was > 40 µM (active), the IC50 [7] was > 20 µM (inactive) and the IC50 [8] was 27.8 µM (active).
In the case of CC1CCCCC1NC(=O)c1ccc(S(=O)(=O)N2CCCC2)cc1 (stereo not given), the IC50 [4] is reported as 13.2 µM (active).
For COc1ccccc1NS(=O)(=O)c1ccc(N/N=C/c2ccccc2OCC(=O)O)c([N+](=O)[O-])c1, the IC50 [9] was 56.5 µM (active).
In the case of COc1ccc(OCC(=O)N/N=C2\CCc3ccccc32)cc1, the IC50 [8] is reported as 42.9 µM (active).
With CCCOc1cccc(C(=O)NCCNC(=O)c2ccco2)c1 the EC50 [5] was 2.99 µM (active).
With Nc1c(-c2cccs2)cnn1-c1nc(-c2ccc(Cl)cc2Cl)cs1 the EC50 [10] was > 89.2 µM (inactive), the AC50 [11] was 12.6 µM (inconclusive) and the AC50 [12] was 20 µM (inconclusive).
For COc1ccc(F)cc1CN1CCN(C(=O)CCC(=O)Nc2nnc(C(C)C)s2)CC1, the EC50 [13] was 0.841 µM (active).
With COc1ccc(-c2oc3ccc(-c4ccc5c(c4)OCO5)cc3c2C#CC2(O)CCCCC2)cc1 the EC50 [10] was > 89.2 µM (inactive).
For CC1Cc2ccccc2N1C(=S)NC(=O)c1ccco1 (stereo not given), the IC50 [1] was 0.535 µM (not active).
In the case of O=C(Nc1cc(-c2nc3ccccc3s2)ccc1Cl)c1ccc2c(c1)OCO2, the AC50 [14] is reported as 3.55 µM (inconclusive), the EC50 [10] is reported as > 89.2 µM (inactive) and the AC50 [12] is reported as 1.78 µM (inconclusive).
In the case of O=C(C1CCCN(c2ncnc3c2nc2n3CCCCC2)C1)N1CCN(c2ccc(Cl)cc2)CC1 (stereo not given), the CC50 [6] is reported as > 40 µM (active) and the IC50 [4] is reported as 4.57 µM (active).
In the case of COc1ccc(C(=O)C2CCCN(C3Cc4ccccc4C3)C2)cc1OC (stereo not given), the EC50 [13] is reported as 1.68 µM (active).
For C=CCn1c(CCNC(=O)c2ccco2)nc2ccccc21, the EC50 [13] was 1.68 µM (active).
In the case of CC1CCCN1CC#CC(O)(c1ccccc1)c1ccccc1 (stereo not given), the EC50 [5] is reported as 0.188 µM (active).
For CCCN(CCC)CCN=C(S)Nc1ccc2nc3n(c(=O)c2c1)CCCCC3, the EC50 [13] was 0.299 µM (active).
With Cc1onc(-c2ccccc2)c1C(=O)Nc1nnc(COc2ccc(Cl)cc2)s1 the IC50 [8] was 8.45 µM (active).
For c1csc(-c2nc(NCC3CCCO3)c3ccccc3n2)c1 (stereo not given), the EC50 [5] was 4.73 µM (active).
In the case of Cc1ccc(N2C(=O)CC(c3c[nH]c4ccccc34)C2=O)cc1 (stereo not given), the IC50 [1] is reported as 12.1 µM (not active).
In the case of CCN1CCN(c2ccc(S(=O)(=O)N3CCOCC3)cc2NC(=O)/C=C/c2ccc(OC)cc2OC)CC1, the EC50 [13] is reported as 2.99 µM (active).
For COc1ccc(NC(=O)COC(=O)c2c(NC(C)=O)sc(C)c2C)cc1, the EC50 [10] was > 89.3 µM (inactive).
In the case of CCOc1ccc(N2C(=O)C(Cl)=C(N3CCOCC3)C2=O)cc1, the IC50 [9] is reported as 29.4 µM (active).
With COc1ccc(S(=O)(=O)N2CCCCN3[C@H](CO)[C@H](c4ccc(-c5cccnc5)cc4)[C@@H]3C2)cc1 the AC50 [15] was 20 µM (active) and the AC50 [16] was 25.6 µM (active).
For COc1ccccc1C(=O)Nc1ccc(C(=O)c2ccccc2)cc1, the IC50 [1] was 35.2 µM (not active).
In the case of O=C(N/N=C/c1ccc(Cl)cc1)c1ccc2c(c1)OCO2, the EC50 [17] is reported as > 120 µM (not active), the EC50 [18] is reported as 1.87 µM (active) and the EC50 [19] is reported as 2.44 µM (active). For the same compound, the IC50 [20] was 6.93 µM (active).
For CC(=O)Nc1cc(-c2ccc(C(=O)N3CCOCC3)cc2)cn2c(-c3ccccc3)cnc12, the EC50 [10] was > 89.2 µM (inactive).
With CC(C)C(=O)Nc1ccc(C(=O)Nc2nnc(C(C)(C)C)s2)cc1 the EC50 [5] was 0.237 µM (active).
In the case of CCCCNS(=O)(=O)c1ccc2[nH]c(SCC(=O)Nc3ccccc3Cl)nc2c1, the IC50 [1] is reported as 18.5 µM (not active).
For FC(F)Oc1ccccc1N=C(S)Nc1cccc(Cl)c1Cl, the EC50 [5] was 7.5 µM (active).
